Experimental data taken from patent US5763405A, “Stabilized composition for oral administration of peptides” (Ferring B.V., priority 1994, dated 1998).

Conditions: pH 6.5
Description: A tube was introduced intranasally after local anaesthesia with xylocaine, and gastric juice was collected. Thereafter one standardized meal was given 1 h before sampling of duodenal and distal jejunum juice and another the next morning before the collection of distal ileal juice. After centrifugation the gastric and intestinal juices were frozen in aliquots of 1 ml and stored at -20° C. Degradation method. The peptide or peptide analog (10 μl of 10 mM peptide in 0.9% aqueous NaCl) was added to 190 μl of undiluted juice at 370° C. Aliquots of 25 μl were withdrawn at intervals and mixed with 100 μl acetone to stop the reaction. After centrifugation for 10 min at 10,000 g, 10 μl of the supernatiant was analyzed by reversed phase HPLC. Determination of peptide degradation. Analysis was carried out in a Varian 5000 HPLC analyzer equipped with a UV-detector (220 nm). Column Bondapak TM C18 (3.9×300 mm), eluant MeOH/0.025M NH4 Ac (isocratic conditions), flow rate 1 ml/min. Protein and pH determination. Protein: Bio-Rad protein assay. pH: Orion model SA720; pH-paper Merck (Darmstadt), range 4.0-7.0.

SMILES: NC(=O)CC[C@@H]1NC(=O)[C@H](Cc2ccccc2)NC(=O)[C@H](Cc2ccc(O)cc2)NC(=O)CCSSC[C@@H](C(=O)N2CCC[C@H]2C(=O)N[C@H](CCCN=C(N)N)C(=O)NCC(N)=O)NC(=O)[C@H](CC(N)=O)NC1=O [DDAVP, Mpa--Tyr--Phe--Gln--Asn--Cys--Pro--D--Arg--Gly--GlyNH2 (SEQ ID NO: 3)]
- DDAVP degraded (to about 50%): about 50%
